The target in one assay is T1, DYRK1A (Homo sapiens, UniProt Q13627).
T1 construct: GST-fusion or His-tag (not specified per kinase); purchased ProQinase GmbH; host or cells: Sf9 insect cells or E. coli (not specified per kinase)
Briefly: Radiometric protein kinase assay (33PanQinase Activity Assay), DYRK1A. It is filed as biochemical. The settings on record: for IC50: class by IC50 on DYRK1A, from dose-response curves, read-out: Potency Class DYRK1A; for Selectivity Class DYRK1A vs. CLK1: ratio of IC50 on CLK1 over IC50 on DYRK1A; for Selectivity Class DYRK1A vs. DYRK1B: ratio of IC50 on DYRK1B over IC50 on DYRK1A. As to the method: The IC50 profile of all compounds was determined using 12 protein kinases (CDK2/cyclin E, CK1ε, CLK1, 2, 3, 4, DYRK1A, 1B, 2, 3, 4, GSK3β).
(§1) The compounds were provided as […] in 100% DMSO. Prior to testing, the 1 μM stock solutions were subjected to a serial, semi-logarithmic dilution using 100% DMSO as a solvent. […] In the process, 90 μl H2O were added to each well of each compound dilution plate. To minimize potential precipitation, the H2O was added to each plate only a few minutes before the transfer of the compound solutions into the assay plates. The plate was shaken thoroughly, resulting in a compound dilution plate/10% DMSO.
(§2) For the assays (see below), 5 μL solution from each well of the compound dilution plates/10% DMSO were transferred into the assay plates. The final volume of the assay was 50 μL. All compounds were tested at 10 final assay concentrations in the range from 10 μM to 30 nM. The final DMSO concentration in the reaction cocktails was 1% in all cases.
(§3) All protein kinases provided by ProQinase were expressed in Sf9 insect cells or in E. coli as recombinant GST-fusion proteins or His-tagged proteins, either as full-length or enzymatically active fragments. All kinases were produced from human cDNAs and purified by either GSH-affinity chromatography or immobilized metal. Affinity tags were removed from a number of kinases during purification. The purity of the protein kinases was examined by SDS-PAGE/Coomassie staining, the identity was checked by mass spectroscopy.
(§4) A radiometric protein kinase assay (33PanQinase® Activity Assay) was used for measuring the kinase activity of the 12 protein kinases. All kinase assays were performed in 96-well FlashPlates™ from PerkinElmer (Boston, MA, USA) in a 50 μL reaction volume. The reaction cocktail was pipetted in four steps in the following order: • 25 μL of assay buffer (standard buffer/[γ-^33P]-ATP), • 10 μL of ATP solution (in H2O), • 5 μL of test compound (in 10% DMSO), • 10 μL of enzyme/substrate mixture.
(§5) The reaction cocktails were incubated at 30° C. for 60 minutes. The reaction was stopped with 50 μL of 2% (v/v) H3PO4, plates were aspirated and washed two times with 200 μL 0.9% (w/v) NaCl. Incorporation of ^33Pi was determined with a microplate scintillation counter (Microbeta, Wallac). The IC50 values for all compounds were calculated from the dose response curves

For the next assay, the target named is T2, CLK1 (Homo sapiens, UniProt P49759).
T2 construct: GST-fusion or His-tag (not specified per kinase); purchased ProQinase GmbH; host or cells: Sf9 insect cells or E. coli (not specified per kinase)
Briefly: Radiometric protein kinase assay (33PanQinase Activity Assay), CLK1. The assay is classed as biochemical. Conditions: class by IC50 on CLK1, from dose-response curves; read-out: Potency Class CLK1. As to the method: Assays were performed by ProQinase GmbH (Engesserstr. 4, D-79108 Freiburg, Germany. www.proqinase.com). The IC50 profile of all compounds was determined using 12 protein kinases (CDK2/cyclin E, CK1ε, CLK1, 2, 3, 4, DYRK1A, 1B, 2, 3, 4, GSK3β).
as §1, §2, §3, §4, §5
As a parameter for assay quality, the Z′-factor (Zhang et al., J. Biomol. Screen. 2: 67-73, 1999) for the low and high controls of each assay plate (n=8) was used. ProQinase's criterion for repetition of an assay plate is a Z′-factor below 0.4 (Iversen et al., J. Biomol. Screen. 3: 247-252, 2006).

Structures are written as SMILES. Counter-ions that a name gives are not always drawn.

T2 sequence (P49759 whole entry, the tested form may be a part): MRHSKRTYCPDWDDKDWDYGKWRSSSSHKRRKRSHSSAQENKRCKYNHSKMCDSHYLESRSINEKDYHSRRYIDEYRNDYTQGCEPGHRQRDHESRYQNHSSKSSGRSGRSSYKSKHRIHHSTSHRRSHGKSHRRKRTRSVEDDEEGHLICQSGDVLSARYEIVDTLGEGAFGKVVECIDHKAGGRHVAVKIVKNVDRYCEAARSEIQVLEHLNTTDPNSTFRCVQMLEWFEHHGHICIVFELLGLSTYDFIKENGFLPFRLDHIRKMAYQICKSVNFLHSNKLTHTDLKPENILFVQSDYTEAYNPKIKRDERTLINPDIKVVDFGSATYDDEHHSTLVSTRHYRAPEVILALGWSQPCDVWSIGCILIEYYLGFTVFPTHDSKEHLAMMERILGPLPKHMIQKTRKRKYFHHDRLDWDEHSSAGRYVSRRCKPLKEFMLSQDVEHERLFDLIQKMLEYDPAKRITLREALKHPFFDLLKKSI

In the case of `CC(C)C[C@@H](CF)NC1=N/C(=C\c2ccc3nccnc3c2)C(=O)N1` [Compound 15, (4Z)-2-[[(1S)-1-(Fluoromethyl)-3-methyl-butyl]amino]-4-(quinoxalin-6-ylmethylene)-1H-imidazol-5-one], at DYRK1A, the IC50 is above 50 nM; the “Selectivity Class DYRK1A vs. CLK1” value is “III (ratio between 0.5 and 2 fold)”; the “Selectivity Class DYRK1A vs. DYRK1B” value is “III (ratio between 0.5 and 2 fold)”. Also, the IC50 on CLK1 was above 50 nM.
Take `O=C1NC(NCc2ccccc2)=N/C1=C\c1ccc2nccnc2c1` [Compound 21]: on DYRK1A, the IC50 is above 50 nM; the “Selectivity Class DYRK1A vs. CLK1” value is “III (ratio between 0.5 and 2 fold)”; the “Selectivity Class DYRK1A vs. DYRK1B” value was “II (ratio between 2 and 10 fold)”. For the same compound, the IC50 at CLK1 is above 50 nM.
Take `O=C1NC(NCc2ccccc2C(F)(F)F)=N/C1=C\c1ccc2nccnc2c1` [Compound 22, (4Z)-4-(quinoxalin-6-ylmethylene)-2-[[2-(trifluoromethyl)phenyl]methylamino]-1H-imidazol-5-one]: on DYRK1A, the IC50 is above 50 nM; the “Selectivity Class DYRK1A vs. CLK1” value was “III (ratio between 0.5 and 2 fold)”; the “Selectivity Class DYRK1A vs. DYRK1B” value was “II (ratio between 2 and 10 fold)”. Further, on CLK1, the IC50 was above 50 nM.
Turning to `O=C1NC(N[C@H]2c3ccccc3C[C@@H]2O)=N/C1=C\c1ccc2nccnc2c1` [Compound 23, (4Z)-2-[[(1S,2S)-2-hydroxyindan-1-yl]amino]-4-(quinoxalin-6-ylmethylene)-1H-imidazol-5-one], on DYRK1A, the IC50 was 10 to 25 nM; the “Selectivity Class DYRK1A vs. CLK1” value was “II (ratio between 2 and 10 fold)”; the “Selectivity Class DYRK1A vs. DYRK1B” value was “II (ratio between 2 and 10 fold)”. In addition, at CLK1, the IC50 was above 50 nM.
For `COC[C@H](NC1=N/C(=C\c2ccc3nccnc3c2)C(=O)N1)c1ccccc1` [Compound 26, (4Z)-2-[[(1R)-2-methoxy-1-phenyl-ethyl]amino]-4-(quinoxalin-6-ylmethylene)-1H-imidazol-5-one], at DYRK1A, the IC50 is above 50 nM; the “Selectivity Class DYRK1A vs. CLK1” value was “III (ratio between 0.5 and 2 fold)”; the “Selectivity Class DYRK1A vs. DYRK1B” value was “II (ratio between 2 and 10 fold)”. The IC50 at CLK1 is above 50 nM.
For `O=C1NC(NC[C@H](O)c2ccccc2)=N/C1=C\c1ccc2nccnc2c1` [Compound 27, (4Z)-2-[[(2R)-2-hydroxy-2-phenyl-ethyl]amino]-4-(quinoxalin-6-ylmethylene)-1H-imidazol-5-one], at DYRK1A, the IC50 is above 50 nM; the “Selectivity Class DYRK1A vs. CLK1” value is “III (ratio between 0.5 and 2 fold)”; the “Selectivity Class DYRK1A vs. DYRK1B” value was “II (ratio between 2 and 10 fold)”. The IC50 on CLK1 is above 50 nM.
Turning to `NC[C@H](NC1=N/C(=C\c2ccc3nccnc3c2)C(=O)N1)c1ccccc1` [Compound 28, (4Z)-2-[[(1R)-2-amino-1-phenyl-ethyl]amino]-4-(quinoxalin-6-ylmethylene)-1H-imidazol-5-one dihydrochloride], at DYRK1A, the IC50 lay within 25 to 50 nM; the “Selectivity Class DYRK1A vs. CLK1” value was “III (ratio between 0.5 and 2 fold)”; the “Selectivity Class DYRK1A vs. DYRK1B” value was “II (ratio between 2 and 10 fold)”. In addition, at CLK1, the IC50 is 25 to 50 nM.
With `NC[C@@H](NC1=N/C(=C\c2ccc3nccnc3c2)C(=O)N1)c1ccccc1` [Compound 29, (4Z)-2-[[(1S)-2-Amino-1-phenyl-ethyl]amino]-4-(quinoxalin-6-ylmethylene)-1H-imidazol-5-one dihydrochloride], on DYRK1A, the IC50 was 25 to 50 nM; the “Selectivity Class DYRK1A vs. CLK1” value is “III (ratio between 0.5 and 2 fold)”; the “Selectivity Class DYRK1A vs. DYRK1B” value was “II (ratio between 2 and 10 fold)”. Besides, the IC50 on CLK1 is above 50 nM.
On to `Cc1cnc(CNC2=N/C(=C\c3ccc4nccnc4c3)C(=O)N2)cn1` [Compound 30, (4Z)-2-[(5-methylpyrazin-2-yl)methylamino]-4-(quinoxalin-6-ylmethylene)-1H-imidazol-5-one], for which, at DYRK1A, the IC50 was above 50 nM; the “Selectivity Class DYRK1A vs. CLK1” value was “IV (ratio between 0.1 and 0.5 fold)”; the “Selectivity Class DYRK1A vs. DYRK1B” value was “II (ratio between 2 and 10 fold)”. Also, at CLK1, the IC50 was above 50 nM.
Turning to `Cc1csc(CNC2=N/C(=C\c3ccc4nccnc4c3)C(=O)N2)n1` [Compound 31, (4Z)-2-[(4-methylthiazol-2-yl)methylamino]-4-(quinoxalin-6-ylmethylene)-1H-imidazol-5-one], on DYRK1A, the IC50 is above 50 nM; the “Selectivity Class DYRK1A vs. CLK1” value was “III (ratio between 0.5 and 2 fold)”; the “Selectivity Class DYRK1A vs. DYRK1B” value was “III (ratio between 0.5 and 2 fold)”. Also, on CLK1, the IC50 was above 50 nM.
As for `O=C1NC(NCC2CCOCC2)=N/C1=C\c1ccc2nccnc2c1` [Compound 32, (4Z)-4-(quinoxalin-6-ylmethylene)-2-(tetrahydropyran-4-ylmethylamino)-1H-imidazol-5-one], on DYRK1A, the IC50 is above 50 nM; the “Selectivity Class DYRK1A vs. CLK1” value was “III (ratio between 0.5 and 2 fold)”; the “Selectivity Class DYRK1A vs. DYRK1B” value is “II (ratio between 2 and 10 fold)”. Also, on CLK1, the IC50 was above 50 nM.
Regarding `CN1CCN(c2ccc(NC3=N/C(=C\c4ccc5nccnc5c4)C(=O)N3)cc2)CC1` [Compound 33, (4Z)-2-[4-(4-Methylpiperazin-1-yl)anilino]-4-(quinoxalin-6-ylmethylene)-1H-imidazol-5-one], on DYRK1A, the IC50 was 25 to 50 nM; the “Selectivity Class DYRK1A vs. CLK1” value is “II (ratio between 2 and 10 fold)”; the “Selectivity Class DYRK1A vs. DYRK1B” value was “II (ratio between 2 and 10 fold)”. The IC50 on CLK1 was above 50 nM.
Turning to `Cn1ccc(NC2=N/C(=C\c3ccc4nccnc4c3)C(=O)N2)n1` [Compound 34, (4Z)-2-[(1-methylpyrazol-3-yl)amino]-4-(quinoxalin-6-ylmethylene)-1H-imidazol-5-one], at DYRK1A, the IC50 was above 50 nM; the “Selectivity Class DYRK1A vs. CLK1” value is “III (ratio between 0.5 and 2 fold)”; the “Selectivity Class DYRK1A vs. DYRK1B” value was “II (ratio between 2 and 10 fold)”. Moreover, the IC50 at CLK1 was above 50 nM.
Regarding `O=C1NC(Nc2ccccn2)=N/C1=C\c1ccc2nccnc2c1` [Compound 35, (4Z)-2-(2-pyridylamino)-4-(quinoxalin-6-ylmethylene)-1H-imidazol-5-one], on DYRK1A, the IC50 is above 50 nM; the “Selectivity Class DYRK1A vs. CLK1” value is “II (ratio between 2 and 10 fold)”; the “Selectivity Class DYRK1A vs. DYRK1B” value was “II (ratio between 2 and 10 fold)”. Further, the IC50 at CLK1 was above 50 nM.
With `O=C1NC(N[C@@H]2CCOC2)=N/C1=C\c1ccc2nccnc2c1` [Compound 37, (4Z)-4-(quinoxalin-6-ylmethylene)-2-[[(3R)-tetrahydrofuran-3-yl]amino]-1H-imidazol-5-one], on DYRK1A, the IC50 is above 50 nM; the “Selectivity Class DYRK1A vs. CLK1” value is “III (ratio between 0.5 and 2 fold)”; the “Selectivity Class DYRK1A vs. DYRK1B” value was “II (ratio between 2 and 10 fold)”. The IC50 on CLK1 was above 50 nM.
Turning to `O=C1NC(N[C@H]2CCCOC2)=N/C1=C\c1ccc2nccnc2c1` [Compound 38, (4Z)-4-(quinoxalin-6-ylmethylene)-2-[[(3S)-tetrahydropyran-3-yl]amino]-1H-imidazol-5-one], on DYRK1A, the IC50 is above 50 nM; the “Selectivity Class DYRK1A vs. CLK1” value is “III (ratio between 0.5 and 2 fold)”; the “Selectivity Class DYRK1A vs. DYRK1B” value is “II (ratio between 2 and 10 fold)”. Also, at CLK1, the IC50 is above 50 nM.

The record behind these values is patent publication US20250340538A1, “IMIDAZOLONE DERIVATIVES AS INHIBITORS OF PROTEIN KINASES IN PARTICULAR DYRK1A, CLK1 AND/OR CLK4” (PERHA PHARMACEUTICALS, priority 2021, published 2025).
